{
  "source": "patent US20240335418A1",
  "about": "“SAFER PSYCHOACTIVE COMPOSITIONS” (Arcadia Medicine, Inc., priority 2021, published 2024)",
  "key": {"[1]": {"settings": "dog, p.o.; cited from earlier work"}, "[2]": {"settings": "rat, cited from earlier work"}, "[3]": {"settings": "mouse; cited from earlier work"}, "[4]": {"settings": "p.o. in rat (SR(±)MDMA: with single housing); cited from earlier work"}, "[5]": {"system": "serotonergic presynaptic markers", "settings": "primate study; cited from earlier work"}, "[6]": {"settings": "cited from earlier work"}, "[7]": {"assay": "Human Equivalent Dose (HED) of NOAEL", "settings": "for Human Equivalent Dose (HED): NOAEL (human), total dose / Human Equivalent Dose (HED): Neurotoxicology NOAEL (human), total dose: assuming a 60 kg human; for NOAEL: human, po"}, "[8]": {"settings": "dog, female and male, p.o.; cited from earlier work"}, "[9]": {"settings": "cited from earlier work", "remark": "listed apart in the source"}, "CYP2C19": {"target": "CYP2C19 (Homo sapiens, UniProt P33261)", "sequence (P33261 whole entry)": "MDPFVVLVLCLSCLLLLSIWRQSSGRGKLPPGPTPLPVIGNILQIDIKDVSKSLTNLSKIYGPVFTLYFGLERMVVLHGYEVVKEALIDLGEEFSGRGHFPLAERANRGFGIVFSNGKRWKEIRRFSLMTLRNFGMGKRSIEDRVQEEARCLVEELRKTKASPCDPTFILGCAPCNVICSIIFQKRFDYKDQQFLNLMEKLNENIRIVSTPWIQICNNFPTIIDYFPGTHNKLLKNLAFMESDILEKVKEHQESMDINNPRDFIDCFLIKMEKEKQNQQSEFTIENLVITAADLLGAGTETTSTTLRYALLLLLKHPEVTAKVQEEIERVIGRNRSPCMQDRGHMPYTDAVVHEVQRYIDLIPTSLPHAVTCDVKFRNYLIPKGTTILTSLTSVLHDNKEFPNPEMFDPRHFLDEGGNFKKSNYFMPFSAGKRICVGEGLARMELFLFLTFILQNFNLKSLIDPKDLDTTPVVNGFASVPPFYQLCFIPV", "settings": "cited from earlier work"}, "[10]": {"settings": "cited from earlier work; for Fear behavior during the fear extinction session: during extinction training; for Conditioned fear when retention of extinction was assessed: the following day"}, "[11]": {"assay": "Maximum Recommended Starting Dose (MRSD) and doses tested in humans", "settings": "expected value"}, "CYP2D6": {"target": "CYP2D6 (Homo sapiens, UniProt P10635)", "sequence (P10635 whole entry)": "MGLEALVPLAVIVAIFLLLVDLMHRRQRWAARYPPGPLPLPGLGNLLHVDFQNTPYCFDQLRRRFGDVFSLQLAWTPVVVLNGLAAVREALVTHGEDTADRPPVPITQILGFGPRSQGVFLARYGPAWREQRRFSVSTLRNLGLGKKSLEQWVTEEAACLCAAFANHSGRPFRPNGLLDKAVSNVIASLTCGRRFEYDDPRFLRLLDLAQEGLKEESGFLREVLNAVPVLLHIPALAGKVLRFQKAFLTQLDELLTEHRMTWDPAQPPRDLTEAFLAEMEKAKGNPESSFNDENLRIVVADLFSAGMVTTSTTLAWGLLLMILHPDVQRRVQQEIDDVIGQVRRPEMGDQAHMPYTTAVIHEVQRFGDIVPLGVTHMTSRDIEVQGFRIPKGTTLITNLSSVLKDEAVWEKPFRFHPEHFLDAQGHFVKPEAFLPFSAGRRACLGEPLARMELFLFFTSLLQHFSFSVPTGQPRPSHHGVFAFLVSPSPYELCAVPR", "settings": "cited from earlier work"}, "[12]": {"assay": "No adverse effect level (NOAEL) in rat, p.o.", "settings": "in vivo, po"}, "[13]": {"assay": "Subjective report: physiological and subjective effects after oral administration (Subject A)", "format": "in vivo, human", "procedure": "To determine the physiological and subjective effects of the hydrochloride salt of R-MDMA (oral administration, 250 (±) 10 mg), supplemented with acetyl-L-carnitine (ALCAR), alpha lipoic acid (ALA), ascorbate to reduce or prevent neurotoxicity.\n2.2 g of racemic MDMA was obtained and dissolved in methanol at a stock concentration of 10 mg/mL. A ChiralPak Ad-H column (150×4.6 mm, 5 μm particle size) was flushed with mobile phase solution on an Agilent 1260 machine with a variable UV-Vis detector and 10 uL of the final concentrated solution (1:100) was injected on a 35 min run cycle. Due to the preliminary nature of the testing, no further characterization was done. The laevo-rich form was the first eluted. It was collected and roto-evaporated into solid form and then dried over magnesium pellets. The product, when dried and washed thoroughly, was sent out for anonymized 1H-NMR testing to determine identity.\nVitals were taken hourly, and were taken four times between hours two and three. Heart rate rose for a short period to 115-125 from 85 resting.\nMDMA enantiomers were recombined in a 9:1 ratio through crystallization and washing."}, "[14]": {"settings": "100 mg, healthy volunteers, brain imaging studies"}},
  "note": "“Also recorded” adds a separate entry of the source. Where two headings read alike, the source gives them in different places.",
  "data": [
    {"compound": "CNC(C)Cc1ccc2c(c1)OCO2", "note": "(stereo not drawn) [MDMA, 3,4-methylenedioxymethamphetamine]", "values": [
      {"measurement": "No adverse effect level (NOAEL)", "setting": "[1]", "result": "NOAEL: 15 mg/kg in"},
      {"measurement": "Neurotoxicology NOAEL", "setting": "[2]; female, p.o.", "result": 25, "unit": "mg/kg/week p.o1"},
      {"measurement": "Neurotoxicology NOAEL", "setting": "[2]; male, p.o.", "result": 20, "unit": "mg/kg/week p.o1."},
      {"measurement": "Critical period peak", "setting": "[3]", "result": 40, "unit": "h"},
      {"measurement": "Critical period starts to open, time after the acute dose", "setting": "[3]", "result": "about six"},
      {"measurement": "No adverse effect level (NOAEL)", "setting": "[4]", "result": "NOAEL: 100 mg/kg"},
      {"measurement": "Serotonergic presynaptic markers", "setting": "[5]", "result": "profound reductions in all three serotonergic presynaptic markers"},
      {"measurement": "Elimination half-life", "setting": "[6]; doses ranging from 50-125 mg", "result": "7 to 9", "unit": "h"},
      {"measurement": "Time to peak plasma concentration", "setting": "[6]; humans, doses 100-125 mg", "result": "2 to 3", "unit": "h"},
      {"measurement": "Human Equivalent Dose (HED): NOAEL (human)", "setting": "[7]; 9:1 R:S MDMA: expected, p.o.", "result": 34, "unit": "mg/kg →"},
      {"measurement": "Human Equivalent Dose (HED): Neurotoxicology NOAEL (human)", "setting": "[7]; 9:1 R:S MDMA: i.v.", "result": "NOAEL (human): 6 mg/kg"},
      {"measurement": "Human Equivalent Dose (HED): NOAEL (human), total dose", "setting": "[7]; 9:1 R:S MDMA: expected, p.o.", "result": 2080, "unit": "mg"},
      {"measurement": "Human Equivalent Dose (HED): Neurotoxicology NOAEL (human), total dose", "setting": "[7]; 9:1 R:S MDMA: i.v.", "result": 342.9, "unit": "mg*"},
      {"measurement": "Neurotoxicology NOAEL", "setting": "[8]", "result": 4, "unit": "mg/kg/week p.o"},
      {"measurement": "Duration of subjective effects", "setting": "[9]; [14]", "result": "approximately 4.5 hours"},
      {"measurement": "Time of peak subjective effects", "setting": "[9]; [14]", "result": 100, "unit": "min"},
      {"measurement": "Duration of effects", "setting": "[9]; patients with PTSD receiving one dose", "result": "4 to 5", "unit": "h"},
      {"measurement": "Onset of action after the initial dose", "setting": "[9]; patients with PTSD, 100-125 mg", "result": "45 to 75", "unit": "min"},
      {"measurement": "Time of peak drug effects", "setting": "[9]; patients with PTSD, 100-125 mg", "result": "2 to 5", "unit": "h"},
      {"measurement": "Duration of effects", "setting": "[9]; patients with PTSD, with the booster dose", "result": "5 to 6", "unit": "h"},
      {"measurement": "Decrease of subjective effects to baseline values", "setting": "[9]; prior study (Harris et al.)", "result": "5 to 6", "unit": "h"},
      {"measurement": "Onset of subjective effects", "setting": "[9]; prior study (Harris et al.)", "result": "approximately 45 mins"},
      {"measurement": "Peak of subjective effects", "setting": "[9]; prior study (Harris et al.)", "result": "1.5 to 2", "unit": "h"}
    ]},
    {"compound": "CN[C@@H](C)Cc1ccc2c(c1)OCO2", "note": "[S-MDMA, (S)-1-(1,3-Benzodioxol-5-yl)-N-methylpropan-2-amine]", "values": [
      {"measurement": "Metabolism by CYP2C19, enantiomer preference", "setting": "CYP2C19", "result": "preferentially metabolizes"},
      {"measurement": "Neurotoxicology NOAEL", "setting": "[2]; i.v.", "result": "20 mg/kg i.v2,3"},
      {"measurement": "Fear behavior during the fear extinction session", "setting": "[10]", "result": "reduced conditioned fear behavior"},
      {"measurement": "Conditioned fear when retention of extinction was assessed", "setting": "[10]", "result": "a reduction thereof was not observed"},
      {"measurement": "Expected MSRD", "setting": "[11]", "result": 150, "unit": "mg"},
      {"measurement": "Affinity for CYP2D6 compared with the other enantiomer", "setting": "CYP2D6", "result": "higher affinity"},
      {"measurement": "Human Equivalent Dose (HED): NOAEL (human), total dose", "setting": "[7]; 9:1 R:S MDMA: expected, p.o.", "result": "mg/kg → <2080"},
      {"measurement": "Human Equivalent Dose (HED): Neurotoxicology NOAEL (human), total dose", "setting": "[7]; 9:1 R:S MDMA: i.v.", "result": 342.9, "unit": "mg*"},
      {"measurement": "NOAEL", "setting": "[7]", "result": "< 34", "unit": "mg/kg"},
      {"measurement": "NOAEL", "setting": "[12]", "result": "< 100", "unit": "mg/kg"}
    ]},
    {"compound": "CN[C@H](C)Cc1ccc2c(c1)OCO2", "note": "[R-MDMA, (R)-1-(1,3-Benzodioxol-5-yl)-N-methylpropan-2-amine]", "values": [
      {"measurement": "Neurotoxicology NOAEL", "setting": "[2]; i.v.", "result": 50, "unit": "mg/kg i.v2"},
      {"measurement": "Fear behavior during the fear extinction session", "setting": "[10]", "result": "did not reduce fear behavior"},
      {"measurement": "Conditioned fear when retention of extinction was assessed", "setting": "[10]", "result": "significantly reduced conditioned fear"},
      {"measurement": "No adverse effect level (NOAEL)", "setting": "[4]", "result": "NOAEL: >200 mg/kg"},
      {"measurement": "AUC in comparison to S-MDMA", "setting": "[6]; in vivo", "result": "increased AUC"},
      {"measurement": "Half-life in comparison to S-MDMA", "setting": "[6]; in vivo", "result": "longer half-life"},
      {"measurement": "Human Equivalent Dose (HED): NOAEL (human), total dose", "setting": "[7]; 9:1 R:S MDMA: expected, p.o.", "result": "mg/kg → >4100"},
      {"measurement": "Human Equivalent Dose (HED): Neurotoxicology NOAEL (human), total dose", "setting": "[7]; 9:1 R:S MDMA: i.v.", "result": 450, "unit": "mg*"},
      {"measurement": "NOAEL", "setting": "[7]", "result": "> 68", "unit": "mg/kg"},
      {"measurement": "Duration of the whole experience", "setting": "[13]; R-MDMA HCl 250 (±) 10 mg oral", "result": "approximately 7 hours"},
      {"measurement": "Peak of the experience, time after ingestion", "setting": "[13]; R-MDMA HCl 250 (±) 10 mg oral", "result": "around two"},
      {"measurement": "Start of come-down", "setting": "[13]; R-MDMA HCl 250 (±) 10 mg oral", "result": "~4", "unit": "h"},
      {"measurement": "Start of noticeable effects off-baseline", "setting": "[13]; R-MDMA HCl 250 (±) 10 mg oral", "result": "around 40 minutes"},
      {"measurement": "Blood pressure", "setting": "[13]; R-MDMA HCl 250 (±) 10 mg oral, monitor of low precision, result inconclusive", "result": "increased for a short period"},
      {"measurement": "Hyperthermia or hypothermia", "setting": "[13]; single oral dose, Subject A", "result": "No noticeable hyperthermia or hypothermia"},
      {"measurement": "Jaw clenching", "setting": "[13]; single oral dose, Subject A", "result": "No incidence of jaw clenching"},
      {"measurement": "Stimulant effects compared with racemic MDMA", "setting": "[13]; single oral dose, Subject A", "result": "almost entirely absent; also recorded: reduction in stimulation"},
      {"measurement": "Heart rate", "setting": "[13]; single oral dose, Subject A, R-MDMA HCl 250 (±) 10 mg with supplements (rise from 85 resting), 9:1 R:S MDMA 230-240 mg", "result": "115-125"}
    ]}
  ]
}
